Measurements published in US20110189311A1, “Highly Absorbable Drug Composition and Method of Producing the Same” (TOYO SUGAR REFINING CO., LTD., priority 2009, published 2011).

Columns and labels:
[1] = Oral administration of drug compositions to rats, blood (plasma) drug concentration by HPLC and AUC; type: in vivo, wistar rats; conditions: average of five rats
Protocol: As test animals, 9-week-old male clean wistar rats (five rats for each of drug compositions A to F) were used. […] After the administration, blood was collected from the neck vein of each clean wistar rat at predetermined time intervals and was centrifuged (10000 rpm, 5 min) to obtain plasma. Four hundred microliters of methanol was added to 100 μL of the obtained plasma, and the mixture was mixed for 1 minute with a vortex mixer and was centrifuged (10000 rpm, 5 min). […] One hundred microliters of ethanol was added to the resulting dried substance, and the blood drug concentration was measured using a UV detector (JASCO PU-970) of HPLC (JASCO PU-980). […] Based on the thus-measured blood drug concentrations of the drug compositions, concentration changes with passage of time and areas under blood drug concentration-time curves (AUC) were studied. […] Note that the values of AUC and blood drug concentration in Table 1 and FIGS. 1 to 6 are averages in the five clean wistar rats administered with each of the drug compositions A to F, and “SE” means standard error.

[2] = at 37° C.; cited from earlier work
[3] = cited from earlier work

| Structure (SMILES) | AUC (area under flurbiprofen plasma concentration-time curve) ([1]; flurbiprofen (FP), dose 2 mg/kg) | solubility in neutral water [2] | bioavailability to human [3] | AUC (area under probucol plasma concentration-time curve) ([1]; probucol (PRO), dose 200 mg/kg) |
| --- | --- | --- | --- | --- |
| CC(C(=O)O)c1ccc(-c2ccccc2)c(F)c1 (centres unmarked) [flurbiprofen] | 22060 ng·h/mL | 25 μg/mL water |  |  |
| CC(C)(Sc1cc(C(C)(C)C)c(O)c(C(C)(C)C)c1)Sc1cc(C(C)(C)C)c(O)c(C(C)(C)C)c1 [probucol] |  | 3 to 5 ng/mL water | about 5% | 4940 ng·h/mL |
